Assay results from US20040220084A1, “Methods for nucleic acid delivery” (priority 2003, published 2004).

Legend:
[1] = system: JJ5 Breast Cancer cells; experiment: Cytotoxicity (colony-forming) assay against JJ5 breast cancer cells; assay type: cell-based, human; conditions: 14 days
Procedure: JJ5 breast cancer cells were incubated with increasing amounts EGF-^111In-labeled transferrin composition or ^111In-oxine, centrifuged to remove free ligand, assayed and then seeded into 50 mm culture dishes. The number of cells seeded was varied from 3×10^4 to 3×10^6 cells to obtain approximately 400 viable colonies/dish taking into account the plating efficiency and the expected level of cytotoxicity. Control dishes contained JJ5 breast cancer cells which were incubated with normal saline. Growth medium was added and the cells were cultured at 37° C./5% CO^2 for 14 days. The growth medium was removed and the colonies were stained with methylene blue (1% in a 1:1 mixture of ethanol and water) then washed twice. The number of colonies per dish was counted using a manual colony counter (Manostat Corp). The plating efficiency was calculated by dividing the number of colonies observed by the number of cells seeded in each dish. The surviving fraction at increasing amounts of EGF-^111In-labeled transferrin composition or ^111In-oxine was calculated by dividing the plating efficiency for dishes containing treated cells with that observed for control dishes with normal saline.

[2] = system: JJ5 Breast Cancer cells; experiment: Growth inhibition assay against JJ5 breast cancer cells; assay type: cell-based, human; conditions: 4 days culture
Procedure: JJ5 breast cancer cells (prepared from BCBM JJ5) expressing approximately 10^6 epidermal growth factor receptors/cell were incubated with EGF-^111In-labeled transferrin composition, unlabeled hEGF or ^111In-oxine, centrifuged to remove free ligand, then assayed and seeded (10^6 cells/dish) into 35 mm culture dishes. Growth medium was added and the cells were cultured at 37° C./5% CO^2 for 4 days. The cells were then recovered by trypsinization and counted in a hemocytometer. Control dishes contained cells cultured in growth medium containing ^111In-DTPA or growth medium alone.

[3] = system: JJ5 Breast Cancer cells; experiment: Binding of EGF-111In-labeled transferrin composition to JJ5 breast cancer cells (radioligand binding, kinetics, internalization); set-up: species or system human
Procedure: For the normal breast cell line HBL-100, 8000 EGFR/cell has been reported. The expression of EGFR in breast cancer cell lines has a reported range of 800 EGFR/cell for MCF-7 cells to 10^6 EGFR/cell for MDA-MB-468 cells. […] Utilizing the Auger electron emitter ^111In was used in the initial experiments to illustrate the utility of the invention using EGF-111In-labeled transferrin compositions. The EGF-^111-In-labeled transferrin (0.25-80 ng) was incubated with 1.5×10^6 cells/dish JJ5 Breast Cancer (prepared from BCBM JJ5) cells in 1 mL of 0.1% human serum albumin in 35 mm multiwell culture dishes at 37° C. for 30 minutes. The cells were transferred to a centrifuge tube and centrifuged. The cell pellet was separated from the supernatant and counted in a g-scintillation counter to determine bound (B) and free (F) radioactivity. Non-specific binding was determined by conducting the assay in 100 nM hEGF. The kinetics of binding was determined by incubating 1 ng of EGF-^111In-labeled transferrin composition with 3×10^6 JJ5 Breast Cancer cells at 37° C. and determining the proportion of radioactivity bound to the cells at various times up to 24 hours. Internalized fraction was measured by determining the proportion of radioactivity which could not be displaced from the cell surface by 100 nM hEGF. Cell-associated binding (surface-binding and intracellular accumulation) was expressed as a percentage of medium radioactivity bound per mg of cell study protein.

Compound | cell killing ([1]; <6 pCi/cell) | growth inhibition of the JJ5 cells ([2]; 3.5 pCi/cell) | internalization by cancer cells (in words) ([3]; JJ5 cells) | binding by the breast cancer cells (kinetics, in words) ([3]; JJ5 cells, 37° C.) | retained by the breast cancer cells ([3]; JJ5 cells, 37° C.) | affinity constant for binding to JJ5 cells ([3]; JJ5 cells, 37° C., 30 minutes) | 111In radioactivity lost from the cells in vitro ([3]; over a 24 hour period at 37° C.) | reduction in cell survival for JJ5 cells ([1]; 8 pCi/cell) | growth inhibition of the JJ5 cells compared to the medium control ([2]; 3.4 pCi/cell)
[In+3].[O-]c1cccc2cccnc12.[O-]c1cccc2cccnc12.[O-]c1cccc2cccnc12 [^111In-oxine, reference compound] | greater than 99% | 91% | – | – | – | – | – | – | –
EGF-^111In-labeled transferrin composition: human EGF linked to human transferrin radiolabeled with Auger electron emitter 111In at the iron-binding sites | – | – | rapidly internalized | rapidly bound | at least 24 hours | 8e+08 L/mol | < 8% | 99% | 83%
